This is an account of results in patent publication US8846951B2 (AbbVie Inc., priority 2009, dated 2014).

pEC50: −log10 of the molar value. “Also recorded” adds a separate entry of the source.

One assay concerns the target T1, 5HT2C receptors (Homo sapiens, UniProt P28335).
T1 sequence (P28335 33-458): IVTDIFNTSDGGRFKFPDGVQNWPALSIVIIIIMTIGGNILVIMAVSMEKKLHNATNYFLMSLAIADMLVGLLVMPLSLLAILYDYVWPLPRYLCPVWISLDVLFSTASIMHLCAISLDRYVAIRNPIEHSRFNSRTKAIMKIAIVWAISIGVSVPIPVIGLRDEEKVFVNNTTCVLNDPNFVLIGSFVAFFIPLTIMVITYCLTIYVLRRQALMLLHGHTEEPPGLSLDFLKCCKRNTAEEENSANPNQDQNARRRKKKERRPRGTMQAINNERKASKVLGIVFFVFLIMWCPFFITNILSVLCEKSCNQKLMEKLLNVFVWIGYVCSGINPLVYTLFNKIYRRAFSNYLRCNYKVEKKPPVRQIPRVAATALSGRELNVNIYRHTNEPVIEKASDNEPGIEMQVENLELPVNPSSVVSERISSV
Kind of assay: Human 5-HT2C functional high throughput screening assay in CHO-K1 cells (calcium flux). In kind it is cell-based. Also noted: expressed in transfected cells; host or cells: CHO-K1 cells. A digest of the protocol: (§1)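 Agonism is measured as intracellular calcium increase in receptor-overexpressing CHO-K1 cells, read by FLIPR at 25 °C. Responses are expressed relative to serotonin, with EC50 and Emax derived from a 4-parameter logistic curve over 6 concentrations starting at 10 μM.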

Assay [1] has as its system PCP-induced hyperlocomotion. Nature of the assay: Psychostimulant (PCP)-induced hyperlocomotion in rat. As to conditions: male CD rats; i.p. 1, 3, 10 mg/kg 30 min before PCP 2 mg/kg sc; significant at 1 mg/kg and 10 mg/kg; call rule not given here. The assay is classed as in vivo. As to the method:
(vii) Assessment of Effects on Psychostimulant-Induced Hyperlocomotion in Rat
In humans, phencyclidine (PCP) is known to produce a syndrome of behavioral effects which have many characteristics in common with schizophrenia. Therefore, antagonism of PCP effects might be evidence for antipsychotic efficacy of a compound.
Male CD rats with a body weight of 316-394 g from Charles River (Portage, Mich.) were used in this study. The rats were habituated to the test room for 60 minutes. The rats were then placed into the locomotor activity chambers (AccuScan Instruments) for 30 minutes and then were dosed i.p. with Example 115 at 0, 1, 3 and 10 mg/kg. The rats were dosed sc 30 minutes later with PCP at 0 or 2 mg/kg. The activity was measured for 150 minutes in total and 90 minutes post PCP.

A further assay deals with T2, 5HT2B receptors (Homo sapiens, UniProt P41595).
T2 construct: expressed in transfected cells; host or cells: CHO-K1 cells
T2 sequence (P41595 whole entry): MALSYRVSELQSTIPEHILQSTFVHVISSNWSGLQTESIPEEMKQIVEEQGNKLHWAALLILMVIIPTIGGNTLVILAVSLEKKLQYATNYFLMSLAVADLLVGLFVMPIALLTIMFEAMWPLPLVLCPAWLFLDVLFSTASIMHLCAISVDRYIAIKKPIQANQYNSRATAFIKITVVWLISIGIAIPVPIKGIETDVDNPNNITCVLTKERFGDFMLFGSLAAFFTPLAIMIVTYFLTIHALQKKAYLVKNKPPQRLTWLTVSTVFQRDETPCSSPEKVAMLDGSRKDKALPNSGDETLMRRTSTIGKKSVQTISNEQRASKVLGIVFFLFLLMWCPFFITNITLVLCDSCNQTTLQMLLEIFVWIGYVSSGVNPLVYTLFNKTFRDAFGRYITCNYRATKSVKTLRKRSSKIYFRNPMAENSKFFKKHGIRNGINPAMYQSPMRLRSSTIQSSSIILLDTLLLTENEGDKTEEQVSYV
Nature of the assay: Human 5-HT2B functional high throughput screening assay in CHO-K1 cells (calcium flux). The assay is classed as cell-based. Summed up:
as §1

With `CN1C[C@@H]2CNC(=O)c3cc(-c4ccc(F)cc4)ccc3[C@H]2C1` [Example 115, (3aS,10bS)-8-(4-Fluorophenyl)-2-methyl-1,2,3,3a,4,5-hexahydrobenzo[e]pyrrolo[3,4-c]azepin-6(10bH)-one], the negative logarithm of the EC50 (pEC50) was 8.70 on 5HT2C receptors (5-HT2C agonist activity, CHO-K1 cells, calcium flux, read-out: EC50) and under 5.00 at 5HT2B receptors (5-HT2B agonist activity, CHO-K1 cells, calcium flux, read-out: EC50). In addition, the Emax on 5HT2C receptors (CHO-K1, 5-HT2C, maximum functional response as percentage relative to the effect of serotonin, read-out: Emax) was over 120%; on 5HT2B receptors (5-HT2B, maximum functional response as percentage relative to the effect of serotonin), “inactive”. Further, the “PCP-induced hyperlocomotion (distance traveled)” value in assay [1] was “significantly attenuate the PCP-induced hyperlocomotion; also recorded: attenuating the affect of phencyclidine (PCP)”.
